# Results published in patent publication US20190100549A1, “FLAVONOIDE-TYPE COMPOUNDS BEARING AN O-RHAMNOSYL RESIDUE” (Universitaet Hamburg, priority 2016, published 2019).
# Values joined by “and” are separate entries in the source; they are usually repeats but may differ in a detail not shown here. Identical values can stand only once.
# Legend:
# [1] = system: normal human epidermal keratinocytes (NHEK); assay: Cytotoxicity on NHEK monolayer cultures (MTT reduction assay and morphological observation); format: cell-based; conditions: for Viability (%): single values, listed as Hes-5-Rha
# Description: To determine the cytotoxicity of flavonoid-5-O-α-L-rhamnosides tests were performed versus their aglycon derivatives in cell monolayer cultures. For this purpose concentrations ranging from 1 μM to 250 μM were chosen. The viability of normal human epidermal keratinocytes (NHEK) was twice evaluated by a MTT reduction assay and morphological observation with a microscope. NHEK were grown at 37° C. and 5% CO2 aeration in Keratinocyte-SFM medium supplemented with epidermal growth factor (EGF) at 0.25 ng/mL, pituitary extract (PE) at 25 μg/mL and gentamycin (25 μg/mL) for 24 h and were used at the 3rd passage. For cytotoxicity testing, pre-incubated NHEK were given fresh culture medium containing a specific concentration of test compound and incubated for 24 h. After a medium change at same test concentration cells were incubated a further 24 h until viability was determined. Test results are given in Table B2 and illustrated in FIG. 10.
# [2] = system: matrix metallopeptidase 1 (MMP-1); assay: MMP-1 release in UVA-irradiated NHDF (ELISA); format: cell-based, human; conditions: 100 μM, 15 J/cm^2 UVA
# Description: Tests were performed with normal human dermal fibroblast cultures at the 8th passage. Cells were grown in DMEM supplemented with glutamine at 2 mM, penicillin at 50 U/mL and streptomycin (50 μg/mL) and 10% of fetal calf serum (FCS) at 37° C. in a 5% CO2 atmosphere.
# Human fibroblasts were cultured for 24 hours before the cells were pre-incubated with the test or reference compounds (dexamethasone) for another 24 hours. The medium was replaced by the irradiation medium (EBSS, CaCl2 0.264 g/L, MgClSO4 0.2 g/L) containing the test compounds) and cells were irradiated with UVA (15 J/cm^2). The irradiation medium was replaced by culture medium including again the test compounds incubated for 48 hours. After incubation the quantity of matrix metallopeptidase 1 (MMP-1) in the culture supernatant was measured using an ELISA kit.
# [3] = system: STAT3; assay: STAT3 activity in HeLa-STAT3-luc cells stimulated with IFN-γ (luciferase); format: cell-based; conditions: +IFNγ 25 U/ml; for RLU 1 / RLU 2 / RLU 3: HeLa-STAT3-luc cells; for RLU 1: replicate well 1; for RLU 2: replicate well 2; for RLU 3: replicate well 3; for RLU specific: mean minus control; for Mean: mean of triplicate wells; for % Activation: IFNγ alone = 100% activation
# Description: HeLa-STAT3-luc cells were stably transfected with the plasmid 4xM67 pTATA TK-Luc. Cells (20×10^3 cells/ml) were seeded 96-well plate the day before the assay. Then the cells were treated with the test substances for 15 min and then stimulated with IFN-γ 25 IU/ml. After 6 h, the cells were washed twice with PBS and lysed in 50 μl lysis buffer containing 25 mM Tris-phosphate (pH 7.8), 8 mM MgCl2, 1 mM DTT, 1% Triton X-100, and 7% glycerol during 15 min at RT in a horizontal shaker. Luciferase activity was measured using GloMax 96 microplate luminometer (Promega) following the instructions of the luciferase assay kit (Promega, Madison, Wis., USA). […] The experiments for each concentration of the test items were done in triplicate wells.
smiles,measurement,setting,value
"COc1ccc(C2CC(=O)c3c(cc(O)cc3O[C@@H]3O[C@@H](C)[C@H](O)[C@@H](O)[C@H]3O)O2)cc1O (stereo partly drawn) [HESR1, Hesperetin-5-O-α-L-rhamnoside]",Viability (%) Mean,[1]; 1 μM,97%
same,Viability (%),[1]; 1 μM,86% and 108%
same,Viability (%) Mean,[1]; 2.5 μM,100%
same,Viability (%),[1]; 2.5 μM,87% and 113%
same,Viability (%) Mean,[1]; 5 μM,88%
same,Viability (%),[1]; 5 μM,81% and 95%
same,Viability (%) Mean,[1]; 10 μM,95%
same,Viability (%),[1]; 10 μM,86% and 103%
same,Viability (%) Mean,[1]; 25 μM,101%
same,Viability (%),[1]; 25 μM,89% and 112%
same,Viability (%) Mean,[1]; 50 μM,87%
same,Viability (%),[1]; 50 μM,81% and 93%
same,Viability (%) Mean,[1]; 100 μM,97%
same,Viability (%),[1]; 100 μM,86% and 108%
same,Viability (%) Mean,[1]; 250 μM,96%
same,Viability (%),[1]; 250 μM,91% and 102%
same,MMP-1 % Irradiated control,[2],116%
same,MMP-1 % Protection,[2],−25%
same,Mean MMP-1,[2],82.2 ng/mL
same,MMP-1,[2]; single values,87.0 ng/mL and 77.4 ng/mL
same,RLU 1,[3]; 25 μM test substance,13396 RLU
same,RLU 2,[3]; 25 μM test substance,12243 RLU
same,RLU 3,[3]; 25 μM test substance,12859 RLU
same,RLU specific,[3]; 25 μM test substance,10825 RLU
same,Mean,[3]; 25 μM test substance,12833 RLU
same,% Activation,[3]; 25 μM test substance,86.48%
same,RLU 1,[3]; 50 μM test substance,14303 RLU
same,RLU 2,[3]; 50 μM test substance,13124 RLU
same,RLU 3,[3]; 50 μM test substance,11985 RLU
same,RLU specific,[3]; 50 μM test substance,11130 RLU
same,Mean,[3]; 50 μM test substance,13137 RLU
same,% Activation,[3]; 50 μM test substance,88.92%
